# Results reported in patent US8329859B2, “Peptides that home to tumor lymphatic vasculature and methods of using same” (Sanford-Burnham Medical Research Institute, priority 2001, dated 2012).
# Entries after “also recorded” stand apart in the source; their conditions may differ. No end group written: not given here.
# Experiments:
# [1] = system: primary MDA-MB-435 breast carcinoma tumor cell suspensions; experiment: Ex vivo phage binding to primary 435 tumor cell suspensions; parameters: species or system human; details: synthetic peptide added
# Method: Selected phage were enriched 30-fold relative to nonrecombinant T7 phage in the tumor. Forty-eight individual clones were randomly chosen from the in vivo selected pool, and the inserts sequenced as described below. Individual clones were assayed for the ability to bind cultured 435 cells as well as cell suspensions prepared from 435 tumors.
# Xenografts, tumor cell suspensions and ex vivo selections were performed essentially as follows. Nude Balb/c mice were subcutaneously injected with 1×10^6 MDA-MB-435 tumor cells to generate breast carcinoma xenografts. Human MDA-MB-435 breast carcinoma xenograft tumors were harvested 9 to 12 weeks after implantation, and tumor cell suspensions prepared using collagenase (0.5 mg/ml, Sigma).
# The suspension was subjected to serial washes with 1% BSA in DME to remove unbound phage. Blood vessel endothelial cells were depleted from the tumor cell mixture using magnetic beads (Dynal; Lake Success, N.Y.) coated with anti-mouse CD31 antibody (MEC 13.3; Pharminogen; San Diego, Calif.) according to the manufacturer's instructions. Phage bound to the CD31-negative cell population were rescued by adding bacteria, and the rescued phage titered and amplified in liquid culture.
# [2] = system: MDA-MB-435 human breast carcinoma cell xenografts; experiment: Tumor treatment study; assay type: in vivo, nude mice; details: 67 nmol intravenously twice a week; after about two weeks of treatment; FIG. 8; listed as peptide SEQ ID NO: 1
# Method: A tumor treatment study was performed using MDA-MB-435 human breast carcinoma cell xenografts prepared by subcutaneously injecting 1×10^6 cells in 200 μl PBS into nude mice. Mice (five per group) were treated intravenously twice a week with 67 nmol CGNKRTRGC peptide (SEQ ID NO: 1) or with PBS starting four weeks after tumor implantation. Tumor volumes were measured once a week for four weeks.
# [3] = system: MDA-MB-435 tumor lymphatic vasculature; experiment: Localization in 435 tumors after tail vein injection, with blood vessel and lymphatic marker staining; assay type: in vivo, nude mice
# Method: Localization of phage displaying SEQ ID NO: 1 was analyzed with anti-T7 phage antibody following intravenous injection of CGNKRTRGC (SEQ ID NO: 1)-displaying phage into the tail vein of nude mice carrying an MDA-MB-435 tumor. […] Similar results were obtained by a phage overlay assay in which phage were added onto frozen tissue sections, rather than being injected into the mice.
# An anti-T7 antiserum was prepared by immunizing New Zealand white rabbits with 10^10 pfu of T7 nonrecombinant phage (Novagen). The initial immunization performed in complete Freund's Adjuvant, while boosters were administered in incomplete Freund's Adjuvant. The antibody titer was estimated by ELISA, and the antiserum was absorbed against BLT5615 bacterial and mouse liver lysates. Phage were detected using anti-T7 phage antiserum (1:1000 dilution) and goat anti-rabbit secondary antibody conjugated to fluorescein.
# (§1) Detection of fluorescent peptides and biotin-conjugated tomato lectin was performed as follows. Fluorescein-conjugated peptide CGNKRTRGC (SEQ ID NO: 1) was prepared as described above. The peptide (100 μg in 200 μl of PBS) was injected into the tail vein of mice bearing MDA-MB-435 breast carcinoma tumors. After 10 minutes, biotin-conjugated lycopersicon esculentum (tomato) lectin (100 μg in 200 μl of PBS; Vector; Burlingame, Calif.) was also injected into the tail vein. After 5 minutes, the mouse was perfused through the heart with 4% paraformaldehyde. Tissues were removed and frozen in O.C.T. embedding medium (Tissue-Tek; Torrence, Calif.). Blood vessels were visualized by detecting the tomato lectin with streptavidin-conjugated Alexa 594 (Molecular Probes; Eugene, Oreg.). Green staining indicated the presence of peptide SEQ ID NO: 1, while red staining indicated the presence of tomato lectin.
# MDA-MB-435 breast carcinoma tumors contain lymphatic vessels that are positive for markers of lymphatic endothelial cells. To determine whether CGNKRTRGC (SEQ ID NO: 1) homed to the 435 tumor lymphatics, tumor sections were stained with the lymphatic markers VEGFR-3 and LYVE-1. Lymphatic vessels were visualized using a rat anti-mouse VEGFR-3 antibody or with rabbit anti-LYVE-1 antibody produced as described below.
# LYVE-1 antibody was produced by immunizing New Zealand White rabbits with a peptide encoding the 19 most C-terminal residues of mouse LYVE-1 (Prevo et al., J. Biol. Chem. 276:19420 (2001)) conjugated to keyhole limpet hemocyanin (KLH; Pierce; Iselin, N.J.). The initial immunization was done in complete Freund's Adjuvant, with boosters performed in incomplete Freund's Adjuvant. Specific antibody was obtained following affinity purification with the peptide coupled to Sulfolink Gel (Pierce). Tissues were processed for fifteen minutes following injection with fluorescein-conjugated peptide using rat anti-mouse anti-VEGFR-3, and rabbit anti-LYVE-1. The anti-LYVE-1 antibody was used at a 1:500 dilution on cryo sections, followed by detection with goat anti-rabbit secondary antibody conjugated to Alexa 594 (Molecular Probes).
# normal tissues = experiment: Localization of fluorescent peptide in normal tissues after intravenous injection; assay type: in vivo, mouse
# Method: Several normal tissues also were studied for localization of the CGNKRTRGC (SEQ ID NO: 1) peptide.
# as §1
# [4] = system: Cultured MDA-MB-435 cells; experiment: Trypan blue cytotoxicity in cultured MDA-MB-435 cells; assay type: cell-based; details: FIG. 7
# Method: Cultured MDA-MB-435 cells were incubated with a control peptide (CGEKRTRGC; SEQ ID NO: 3) or with CGNKRTRGC (SEQ ID NO: 1) at 37° C. for 1, 2 or 4 hours. After staining with trypan blue, which is taken up by cells that are dead or dying, the total number of cells were counted, and the percentage of trypan blue stained cells determined. […] In particular, after four hours incubation, at least 7-fold greater trypan blue uptake was evident in cell cultures incubated with peptide SEQ ID NO: 1 as compared to cultures incubated with control peptide.
# mitochondrial membranes = details: 10 μM; cited from earlier work
# [5] = system: cultured MDA-MB-435 tumor cells; experiment: Internalization and subcellular localization in cultured MDA-MB-435 cells; assay type: cell-based, human; details: one to five hours at 37° C., FIG. 2
# Method: A fluorescein-conjugated CGNKRTRGC (SEQ ID NO: 1) peptide was utilized to further analyze cellular internalization and subcellular localization. […] Natl. Acad. Sci. 97:13003 (2000). The fluorescein-conjugated peptides were incubated with cultured MDA-MB-435 tumor cells for one to five hours at 37° C. […] Cultured 435 cells also internalized the CGNKRTRGC (SEQ ID NO: 1) phage, although the phage accumulated in the cytoplasm of the cells.
# cultured KRIB cells = experiment: Phage binding and peptide internalization in cultured KRIB cells; assay type: cell-based
Substance,inhibition of binding of CGNKRTRGC phage by synthetic peptide [1],mean tumor volume compared to mice administered PBS alone [2],co-localization with macrophage marker F4/80 ([3]; VEGFR-3 positive single cells in tumor),"localization within 435 tumors after tail vein injection ([3]; mouse, in vivo)",localization in normal tissues (normal tissues),"trypan blue uptake relative to cultures incubated with control peptide ([4]; four hours incubation, 37° C.)","cytotoxic effect compared to control peptide SEQ ID NO: 3 ([4]; later time points of 1, 2 or 4 hours, listed as peptide SEQ ID NO: 1)",mitochondrial swelling (mitochondrial membranes),"co-localization with lymphatic markers VEGFR-3 and LYVE-1 ([3]; 435 tumor tissue, FIG. 5)","internalization and nuclear transport in vivo ([3]; 435 tumor tissue, FIG. 5)","internalization and nuclear transport in vivo ([3]; 435 tumor tissue, FIG. 5, listed as fluorescein-conjugated SEQ ID NO:1)","internalization and nuclear transport in vivo ([3]; 435 tumor tissue, FIG. 5, listed as fluorescein-conjugated peptide (SEQ ID NO: 1))",co-localization with blood vessels labeled with biotin-conjugated tomato lectin ([3]; FIGS. 3A-C),"blood vessel markers Meca-32 and CD31 on the vessels in which the substance localized ([3]; mouse, in vivo)",uptake and subcellular localization of fluorescein-conjugated peptide ([5]; listed as fluorescein-conjugated SEQ ID NO: 1),uptake and subcellular localization of fluorescein-conjugated peptide ([5]; listed as fluorescein-labeled peptide SEQ ID NO: 1),internalization of fluorescein-labeled peptide by cultured KRIB cells (cultured KRIB cells)
CGNKRTRGC [CGNKRTRGC (SEQ ID NO: 1) peptide],inhibited binding,at least several fold less; also recorded: slowed significantly,lack of co-localization,accumulated in VEGFR-3 positive single cells within the tumor,Fluorescence was seen only in the kidney tubuli,at least 7 fold,significantly enhanced cytotoxic effect; also recorded: significantly enhanced cytotoxicity,,,,,,,,,,
D(KLAKLAK)2,,,,,,,,marked mitochondrial swelling,,,,,,,,,
"fluorescein-conjugated CGNKRTRGC (SEQ ID NO: 1) peptide: fluorescein-conjugated CGNKRTRGC peptide (cysteine pairing not given here; also: fluorescein conjugate, site not given here)",,,,localized in vessel-like structures and in individual cells within the tumor,,,,,co-localized,internalized and transported into nuclei,internalized and transported into nuclei,accumulated in the nuclei lining the vessel-like structures,notable lack of co-localization,negative,internalized and translocated to the nucleus,internalized,internalized
